pIC50: −log10 of the molar value. Where a SMILES comes first, the peptide text is derived from it. [ ]: non-standard residue; d: D form. Trp(4-Cl)(βS-Me) = C[C@@H](c1c[nH]c2cccc(Cl)c12)[C@H](N)C(=O)O; Bip(4'-COOH) = N[C@@H](Cc1ccc(-c2ccc(C(=O)O)cc2)cc1)C(=O)O; 1Nal(3S-Me) = C[C@@H](c1cccc2ccccc12)[C@H](N)C(=O)O; Ala(pyrimidin-5-yl) = N[C@@H](Cc1cncnc1)C(=O)O; Phe(4-COOH) = N[C@@H](Cc1ccc(C(=O)O)cc1)C(=O)O; Trp(7-aza) = N[C@@H](Cc1c[nH]c2ncccc12)C(=O)O; h3Pal(5-CN) = N#Cc1cncc(CC[C@H](N)C(=O)O)c1; Pro(4R-NH2) = N[C@H]1CN[C@H](C(=O)O)C1; 1Nal = N[C@@H](Cc1cccc2ccccc12)C(=O)O; Ala(4-THP) = N[C@@H](CC1CCOCC1)C(=O)O; hTyr = N[C@@H](CCc1ccc(O)cc1)C(=O)O; dDab = NCC[C@@H](N)C(=O)O; dNMeA = CN[C@H](C)C(=O)O; Dap = NC[C@H](N)C(=O)O; Aib = CC(C)(N)C(=O)O

The target in this test is T1, Recombinant human IL-1β (Homo sapiens, UniProt P01584).
T1 construct: purchased BioLegend 579404
T1 sequence (P01584 117-269): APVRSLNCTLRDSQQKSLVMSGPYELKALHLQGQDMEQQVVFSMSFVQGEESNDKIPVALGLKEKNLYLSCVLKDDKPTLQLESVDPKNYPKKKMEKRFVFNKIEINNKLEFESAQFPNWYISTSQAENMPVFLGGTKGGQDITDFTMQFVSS
Briefly: IL-6 assay in MRC5 cells: inhibition of IL-1β induced IL-6 secretion (AlphaLISA). Format: cell-based. The conditions noted are these: inhibition of IL-1β induced IL-6 secretion in MRC5 cells; IL-1β pre-incubated 1 hour with compound; read-out: MRC5 IC50. How it is done:
Procedure for IL-6 Assay in MRC5 Cells
The inhibition of IL-1β induced IL-6 secretion was evaluated in MRC5 cells. Recombinant human IL-1β (BioLegend 579404) at 2×EC80 concentration was prepared in seeding medium, EMEM (ATCC 30-2003) with 0.025% BSA (Sigma A9576), 1× penicillin/streptomycin (Gibco 15070-063), 1×NEAA (Gibco 11140-050), 1× GlutaMax (Gibco 35050-061), and 1× sodium pyruvate (Gibco 11360-070). 20 μL of IL-1β was added to a 384-well collagen-coated plate (Corning 354664) and pre-incubated at ambient temperature for 1 hour with 200 nL of compound dispensed using an ECHO 555 liquid handler. Human lung fibroblast MRC5 cells (ATCC CCL-171) were added at a density of 3000 cells/20 μL per well. The cells were prepared by passaging three times in growth medium, EMEM (ATCC 30-2003) with 10% fetal bovine serum (Gibco 16140-071), 1× penicillin/streptomycin (Gibco 15070-063), 1×NEAA (Gibco 11140-050), 1× GlutaMax (Gibco 35050-061), and 1× sodium pyruvate (Gibco 11360-070) in collagen-coated T175 flasks (Greiner 661950) and harvested in seeding medium after 5 minutes of 0.25% trypsin-EDTA (Gibco 25200-056) digestion. The 384-well collagen-coated plate, containing a final volume of 40 μL, was incubated at 37° C., 5% CO2 overnight. 5 μL of the conditioned medium was transferred to a 384-well AlphaLISA plate (PerkinElmer 6005350) for detection of IL-6 using the human AlphaLISA IL-6 kit (PerkinElmer AL223F) as per the manufacturer's protocol. 20 μL of the acceptor bead/biotinylated antibody mix was added to the 384-well AlphaLISA plate and incubated for 1 hour at ambient temperature. The donor bead mix was protected from light and 25 μL was added to the plate and incubated for 30 minutes at ambient temperature. The AlphaLISA plate was read on an EnVision multimode plate reader (Perkin Elmer model 2104) using the AlphaScreen setting (laser exc at 680 nm and emis at 570 nm). Dose response curves and IC50 values were analyzed using a 4-parameter logistic equation in Spotfire software (Tibco, Palo Alto, CA).
A word on the pIC50: it is the IC50 on a negative log10 scale, so that one unit is a factor of ten. As to `C[C@@H]1C(=O)NCC(=O)N[C@@H](Cc2ccc(-c3ccc(C(=O)O)cc3)cc2)C(=O)N[C@@H](CC2CCOCC2)C(=O)N[C@@H](CN)C(=O)N[C@H](C)C(=O)N[C@@H](CCc2ccc(O)cc2)C(=O)N[C@@H](Cc2ccc(-c3ccc(C(=O)O)cc3)cc2)C(=O)N[C@@H](Cc2c[nH]c3ccccc23)C(=O)N[C@@H](Cc2ccc(C(=O)O)cc2)C(=O)NCC(=O)N2C[C@H](N)C[C@H]2C(=O)N[C@@H]([C@@H](C)c2cccc3ccccc23)C(=O)N[C@@H](CC(=O)O)C(=O)N1C` [Example 24] (cyclo([Bip(4'-COOH)]W[Phe(4-COOH)]G[Pro(4R-NH2)][1Nal(3S-Me)]D[dNMeA]G[Bip(4'-COOH)][Ala(4-THP)][Dap][dA][hTyr])), the pIC50 was 10.54.

In the case of `CC(C)C[C@@H]1NC(=O)[C@H](CCCCN)NC(=O)[C@H](Cc2ccc(-c3ccc(C(=O)O)cc3)cc2)NC(=O)CNC(=O)[C@@H](C)N(C)C(=O)[C@H](CC(=O)O)NC(=O)[C@H]([C@@H](C)c2cccc3ccccc23)NC(=O)[C@@H]2C[C@@H](N)CN2C(=O)CNC(=O)[C@H](Cc2ccc(C(=O)O)cc2)NC(=O)[C@H](Cc2c[nH]c3ccccc23)NC(=O)[C@H](Cc2ccc(-c3ccc(C(=O)O)cc3)cc2)NC(=O)[C@H](CCc2ccc(O)cc2)NC(=O)[C@@H](C)NC1=O` [Example 25] (cyclo([Bip(4'-COOH)]W[Phe(4-COOH)]G[Pro(4R-NH2)][1Nal(3S-Me)]D[dNMeA]G[Bip(4'-COOH)]KL[dA][hTyr])), the pIC50 was 10.27.

Take `CC(C)C[C@@H]1NC(=O)[C@H](CCCCN)NC(=O)[C@H](Cc2ccc(-c3ccc(C(=O)O)cc3)cc2)NC(=O)CNC(=O)[C@@H](C)N(C)C(=O)[C@H](CC(=O)O)NC(=O)[C@H]([C@@H](C)c2cccc3ccccc23)NC(=O)[C@@H]2C[C@@H](N)CN2C(=O)CNC(=O)[C@H](Cc2ccc(C(=O)O)cc2)NC(=O)[C@H](Cc2c[nH]c3ccccc23)NC(=O)[C@H](Cc2ccc(-c3ccc(C(=O)O)cc3)cc2)NC(=O)[C@H](CCc2ccc(O)cc2)NC(=O)[C@@H](CO)NC1=O` [Example 26] (cyclo([Bip(4'-COOH)]W[Phe(4-COOH)]G[Pro(4R-NH2)][1Nal(3S-Me)]D[dNMeA]G[Bip(4'-COOH)]KL[dS][hTyr])): the pIC50 is 10.16. In the case of `C[C@@H]1C(=O)NCC(=O)N[C@@H](Cc2ccc(-c3ccc(C(=O)O)cc3)cc2)C(=O)N[C@@H](Cc2cncnc2)C(=O)N[C@@H](CN)C(=O)N[C@H](C)C(=O)N[C@@H](CCc2cncc(C#N)c2)C(=O)N[C@@H](Cc2ccc(-c3ccc(C(=O)O)cc3)cc2)C(=O)N[C@@H](Cc2c[nH]c3ccccc23)C(=O)N[C@@H](Cc2ccc(C(=O)O)cc2)C(=O)NCC(=O)N2C[C@H](N)C[C@H]2C(=O)N[C@@H]([C@@H](C)c2cccc3ccccc23)C(=O)N[C@@H](CC(=O)O)C(=O)N1C` [Example 27] (cyclo([Bip(4'-COOH)]W[Phe(4-COOH)]G[Pro(4R-NH2)][1Nal(3S-Me)]D[dNMeA]G[Bip(4'-COOH)][Ala(pyrimidin-5-yl)][Dap][dA][h3Pal(5-CN)])), the pIC50 was 10.77. To `C[C@@H]1C(=O)NCC(=O)N[C@@H](Cc2ccc(-c3ccc(C(=O)O)cc3)cc2)C(=O)N[C@@H](Cc2cncnc2)C(=O)N[C@@H](CN)C(=O)N[C@H](C)C(=O)N[C@@H](CCc2ccc(O)cc2)C(=O)N[C@@H](Cc2ccc(-c3ccc(C(=O)O)cc3)cc2)C(=O)N[C@@H](Cc2c[nH]c3ccccc23)C(=O)N[C@@H](Cc2ccc(C(=O)O)cc2)C(=O)NCC(=O)N2C[C@H](N)C[C@H]2C(=O)N[C@@H]([C@@H](C)c2cccc3ccccc23)C(=O)N[C@@H](CC(=O)O)C(=O)N1C` [Example 28] (cyclo([Bip(4'-COOH)]W[Phe(4-COOH)]G[Pro(4R-NH2)][1Nal(3S-Me)]D[dNMeA]G[Bip(4'-COOH)][Ala(pyrimidin-5-yl)][Dap][dA][hTyr])) belongs 10.41; to `C[C@@H]1C(=O)NCC(=O)N[C@@H](Cc2ccc(-c3ccc(C(=O)O)cc3)cc2)C(=O)N[C@@H](Cc2c[nH]c3ncccc23)C(=O)N[C@@H](CN)C(=O)N[C@H](C)C(=O)N[C@@H](CCc2ccc(O)cc2)C(=O)N[C@@H](Cc2ccc(-c3ccc(C(=O)O)cc3)cc2)C(=O)N[C@@H](Cc2c[nH]c3ccccc23)C(=O)N[C@@H](Cc2ccc(C(=O)O)cc2)C(=O)NCC(=O)N2C[C@H](N)C[C@H]2C(=O)N[C@@H]([C@@H](C)c2cccc3ccccc23)C(=O)N[C@@H](CC(=O)O)C(=O)N1C` [Example 29] (cyclo([Bip(4'-COOH)]W[Phe(4-COOH)]G[Pro(4R-NH2)][1Nal(3S-Me)]D[dNMeA]G[Bip(4'-COOH)][Trp(7-aza)][Dap][dA][hTyr])), 10.69; to `C[C@@H]1C(=O)NCC(=O)N[C@@H](Cc2ccc(-c3ccc(C(=O)O)cc3)cc2)C(=O)N[C@@H](Cc2c[nH]c3ccccc23)C(=O)N[C@@H](CN)C(=O)N[C@H](C)C(=O)N[C@@H](CCc2cncc(C#N)c2)C(=O)N[C@@H](Cc2ccc(-c3ccc(C(=O)O)cc3)cc2)C(=O)N[C@@H](Cc2c[nH]c3ccccc23)C(=O)N[C@@H](Cc2ccc(C(=O)O)cc2)C(=O)NCC(=O)N2C[C@H](N)C[C@H]2C(=O)N[C@@H]([C@@H](C)c2cccc3ccccc23)C(=O)N[C@@H](CC(=O)O)C(=O)N1C` [Example 30] (cyclo([Bip(4'-COOH)]W[Phe(4-COOH)]G[Pro(4R-NH2)][1Nal(3S-Me)]D[dNMeA]G[Bip(4'-COOH)]W[Dap][dA][h3Pal(5-CN)])), 10.73. In the case of `C[C@@H]1C(=O)NCC(=O)N[C@@H](Cc2ccc(-c3ccc(C(=O)O)cc3)cc2)C(=O)N[C@@H](Cc2c[nH]c3ccccc23)C(=O)N[C@@H](CN)C(=O)N[C@H](C)C(=O)N[C@@H](CCc2ccc(O)cc2)C(=O)N[C@@H](Cc2ccc(-c3ccc(C(=O)O)cc3)cc2)C(=O)N[C@@H](Cc2c[nH]c3ccccc23)C(=O)N[C@@H](Cc2ccc(C(=O)O)cc2)C(=O)NCC(=O)N2C[C@H](N)C[C@H]2C(=O)N[C@@H]([C@@H](C)c2cccc3ccccc23)C(=O)N[C@@H](CC(=O)O)C(=O)N1C` [Example 31] (cyclo([Bip(4'-COOH)]W[Phe(4-COOH)]G[Pro(4R-NH2)][1Nal(3S-Me)]D[dNMeA]G[Bip(4'-COOH)]W[Dap][dA][hTyr])), the negative logarithm of the IC50 (pIC50) was 10.68. For `C[C@@H]1C(=O)NCC(=O)N[C@@H](Cc2ccc(-c3ccc(C(=O)O)cc3)cc2)C(=O)N[C@@H](Cc2c[nH]c3ccccc23)C(=O)NCC(=O)N[C@H](CCN)C(=O)N[C@@H](CCc2ccc(O)cc2)C(=O)N[C@@H](Cc2ccc(-c3ccc(C(=O)O)cc3)cc2)C(=O)N[C@@H](Cc2c[nH]c3ccccc23)C(=O)N[C@@H](Cc2ccc(C(=O)O)cc2)C(=O)NCC(=O)N2C[C@H](N)C[C@H]2C(=O)N[C@@H]([C@@H](C)c2cccc3ccccc23)C(=O)N[C@@H](CC(=O)O)C(=O)N1C` [Example 32] (cyclo([Bip(4'-COOH)]W[Phe(4-COOH)]G[Pro(4R-NH2)][1Nal(3S-Me)]D[dNMeA]G[Bip(4'-COOH)]WG[dDab][hTyr])), the pIC50 is 10.48. On to `CC(C)C[C@@H]1NC(=O)[C@H](Cc2cccc3ccccc23)NC(=O)[C@H](Cc2ccc(-c3ccc(C(=O)O)cc3)cc2)NC(=O)CNC(=O)[C@@H](C)N(C)C(=O)[C@H](C)NC(=O)[C@H]([C@@H](C)c2c[nH]c3cccc(Cl)c23)NC(=O)[C@@H]2C[C@@H](N)CN2C(=O)CNC(=O)[C@H](Cc2ccc(C(=O)O)cc2)NC(=O)[C@H](Cc2c[nH]c3ccccc23)NC(=O)[C@H](Cc2ccc(-c3ccc(C(=O)O)cc3)cc2)NC(=O)CNC(=O)C(C)(C)NC1=O` [Example 33] (cyclo([Bip(4'-COOH)]W[Phe(4-COOH)]G[Pro(4R-NH2)][Trp(4-Cl)(βS-Me)]A[dNMeA]G[Bip(4'-COOH)][1Nal]L[Aib]G)), for which the negative-log IC50 (pIC50) was 9.26.

`C[C@@H]1C(=O)NCC(=O)N[C@@H](Cc2ccc(-c3ccc(C(=O)O)cc3)cc2)C(=O)N[C@@H](Cc2cccc3ccccc23)C(=O)N[C@@H](CN)C(=O)NC(C)(C)C(=O)N[C@@H](CCc2cncc(C#N)c2)C(=O)N[C@@H](Cc2ccc(-c3ccc(C(=O)O)cc3)cc2)C(=O)N[C@@H](Cc2c[nH]c3ccccc23)C(=O)N[C@@H](Cc2ccc(C(=O)O)cc2)C(=O)NCC(=O)N2C[C@H](N)C[C@H]2C(=O)N[C@@H]([C@@H](C)c2c[nH]c3cccc(Cl)c23)C(=O)N[C@@H](CC(=O)O)C(=O)N1C` [Example 34] (cyclo([Bip(4'-COOH)]W[Phe(4-COOH)]G[Pro(4R-NH2)][Trp(4-Cl)(βS-Me)]D[dNMeA]G[Bip(4'-COOH)][1Nal][Dap][Aib][h3Pal(5-CN)])): the pIC50 was 10.12.
